Laboratory results as given in ChEMBL document CHEMBL1287710, “A novel small-molecule inhibitor of IL-6 signalling” (Bioorg Med Chem Lett, 2010).
Active and inactive are the calls of the source. The calls are words filed in the database; no cut-off is given here.

What was measured:
[1] = target: Signal transducer and activator of transcription 3 (Homo sapiens) (UniProt P40763); assay: Inhibition of STAT3 in human HeLa cells at 5 to 100 uM by luciferase reporter assay; type: cell-based
[2] = target: T1, Signal transducer and activator of transcription 1-alpha/beta (Homo sapiens) (UniProt P42224); assay: Induction of STAT1 phosphorylation in human HeLa cells at 30 to 100 uM by Western blot analysis; type: cell-based
T1 sequence (whole entry): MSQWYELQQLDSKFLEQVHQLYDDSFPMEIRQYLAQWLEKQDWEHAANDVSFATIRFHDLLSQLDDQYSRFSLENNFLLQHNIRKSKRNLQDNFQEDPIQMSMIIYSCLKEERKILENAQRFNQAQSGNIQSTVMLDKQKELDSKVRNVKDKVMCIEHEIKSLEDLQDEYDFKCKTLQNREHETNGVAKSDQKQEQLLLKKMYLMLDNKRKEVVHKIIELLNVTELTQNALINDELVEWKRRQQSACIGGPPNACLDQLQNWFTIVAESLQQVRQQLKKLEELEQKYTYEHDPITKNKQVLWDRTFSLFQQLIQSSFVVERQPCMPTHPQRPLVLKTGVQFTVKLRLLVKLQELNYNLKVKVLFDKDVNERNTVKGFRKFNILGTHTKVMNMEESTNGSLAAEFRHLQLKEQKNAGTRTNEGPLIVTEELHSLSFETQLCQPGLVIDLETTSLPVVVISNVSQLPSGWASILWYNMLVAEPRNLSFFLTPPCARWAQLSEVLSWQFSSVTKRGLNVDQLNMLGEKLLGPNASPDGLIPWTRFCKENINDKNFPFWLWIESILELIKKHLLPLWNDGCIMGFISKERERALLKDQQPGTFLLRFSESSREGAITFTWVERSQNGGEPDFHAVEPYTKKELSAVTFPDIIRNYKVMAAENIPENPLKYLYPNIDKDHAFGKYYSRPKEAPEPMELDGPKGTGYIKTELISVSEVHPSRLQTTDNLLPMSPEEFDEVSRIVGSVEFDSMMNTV

[3] = test system: MDA-MB-231; assay: Cytostatic activity against human MDA-MB-231 cells assessed as cell viability after 24 hrs by trypan blue assay; type: functional, cell-based
[4] = target: Signal transducer and activator of transcription 3 (Homo sapiens) (UniProt P40763); assay: Inhibition of IL-6 induced STAT3 phosphorylation at tyrosine 705 residue in serum-starved human HeLa cells at 10 to 30 uM after 20 mins by Western blot analysis; type: cell-based
[5] = target: Signal transducer and activator of transcription 3 (Homo sapiens) (UniProt P40763); assay: Inhibition of STAT3 in IL-6-stimulated human MDA-MB-231 cells assessed as reduction in cell viability up to 125 uM after 24 hrs by MTS assay; type: cell-based
[6] = target: Signal transducer and activator of transcription 3 (Homo sapiens) (UniProt P40763); assay: Inhibition of IL-6 induced STAT3 phosphorylation at tyrosine 705 residue in serum-starved human MDA-MB-231 cells at 30 to 100 uM after 20 mins by Western blot analysis; type: cell-based

Sequence of Signal transducer and activator of transcription 3 (Homo sapiens) (P40763 whole entry): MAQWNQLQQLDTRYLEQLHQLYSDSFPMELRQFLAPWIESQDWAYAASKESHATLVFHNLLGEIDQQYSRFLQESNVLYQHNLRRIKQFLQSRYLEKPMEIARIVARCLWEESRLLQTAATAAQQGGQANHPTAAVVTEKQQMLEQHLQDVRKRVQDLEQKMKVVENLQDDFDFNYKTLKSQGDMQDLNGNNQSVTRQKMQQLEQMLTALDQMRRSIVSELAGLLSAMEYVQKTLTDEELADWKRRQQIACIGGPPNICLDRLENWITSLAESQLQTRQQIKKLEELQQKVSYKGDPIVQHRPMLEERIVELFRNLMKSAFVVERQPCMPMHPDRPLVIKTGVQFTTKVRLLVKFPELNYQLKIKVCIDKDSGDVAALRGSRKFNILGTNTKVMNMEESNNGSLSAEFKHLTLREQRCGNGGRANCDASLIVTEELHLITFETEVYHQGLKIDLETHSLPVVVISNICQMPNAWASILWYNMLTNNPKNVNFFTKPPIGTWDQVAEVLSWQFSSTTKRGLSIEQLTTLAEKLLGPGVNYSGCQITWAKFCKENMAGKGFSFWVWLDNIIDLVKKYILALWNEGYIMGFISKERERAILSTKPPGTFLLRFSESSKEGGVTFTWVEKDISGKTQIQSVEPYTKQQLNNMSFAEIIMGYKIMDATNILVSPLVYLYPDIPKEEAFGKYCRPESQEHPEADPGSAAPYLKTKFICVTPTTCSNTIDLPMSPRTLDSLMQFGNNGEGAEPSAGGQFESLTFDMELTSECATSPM

Cc1ccc(-c2sc(C(=O)NCc3cccs3)cc2S(=O)(=O)N2CCCC2)cc1
Activity [1]: 15 µM | Activity [2]: Active | Activity [3]: inactive | Activity [4]: Active | inhibition [5]: 40% | Activity [6]: Active
